From patent US20240148714A1, “Triple Negative Breast Cancer Treatment Method” (Exelixis, Inc., priority 2016, published 2024)
Entries after “also recorded” stand apart in the source; their conditions may differ.

What was measured:
[1] = Participant-reported pain questionnaire and analgesic use; format: in vivo, human
Description: Study Design and Treatment: As indicated, this was a single-arm, two-stage phase II study assessing the efficacy of cabozantinib monotherapy in patients with mTNBC. Treatment consisted of oral dosing of cabozantinib at 60 mg daily over a 21-day cycle. Patients underwent radiographic restaging at 6 weeks and every 9 weeks thereafter. Patients with complete or partial RECIST responses continued to receive study treatment, whereas those with progressive disease were taken off study. Dose reductions for toxicity occurred if patients experienced grade 3 or 4 neutropenia or thrombocytopenia, or nonhematologic adverse events. From the starting dose of 60 mg daily, doses were reduced as needed to 40 and 20 mg daily. For the purposes of determining the effect of cabozantinib treatment on pain and analgesic medication use, pain was assessed by a participant-reported questionnaire, and daily analgesic medication usage was recorded. These were completed at baseline and during week 3, 6, and every 6 weeks thereafter until the date of the participant's last follow-up visit.

[2] = tested on: circulating mononuclear cells; assay: Circulating cell biomarkers by flow cytometry in serial blood samples; format: in vivo, human
Description: Experimental design: In this single-arm, two-stage phase 2 study, patients with metastatic TNBC with measurable disease by RECIST and up to 3 lines of prior chemotherapy for metastatic disease received cabozantinib 60 mg daily on a 21-day cycle. Patients were restaged 6 weeks following treatment initiation and every 9 weeks thereafter. The primary endpoint was objective response rate (ORR). Predefined secondary endpoints included progression free survival (PFS) and toxicity. Here, we examined cellular biomarkers using flow cytometry in serial blood samples collected at days 0 (baseline/pre-treatment), 8, 22, 43, and 64 of cabozantinib treatment. Mixed effect models were used to evaluate the changes of biomarker levels over time from baseline to day 64. Wilcoxon signed rank test were used to evaluate whether the change of biomarker levels from baseline to day 8 were different by clinical benefit. Adjusted p-values controlling false discovery rate were used to adjust for multiple comparisons.
The primary endpoint was the activity of cabozantinib, as defined by objective response rate (ORR) in patients with mTNBC. Predefined secondary endpoints included progression-free survival (PFS), toxicity, and pain. Correlative studies included analysis of MET and phospho-MET expression in archival tumor tissue, and molecular and cellular biomarkers of cabozantinib. Cellular biomarkers were examined using flow cytometry in serial blood samples collected at days 0 (baseline/pre-treatment), 8, 22, 43, and 64 of cabozantinib treatment. Mixed effect models were used to evaluate the changes of biomarker levels over time from baseline to day 64. Wilcoxon signed rank test were used to evaluate whether the change of biomarker levels from baseline to day 8 were different by clinical benefit. Adjusted p-values controlling false discovery rate were used to adjust for multiple comparisons.
Circulating Biomarker Assays: Potential biomarkers of cabozantinib activity were identified by measuring plasma proteins at baseline, on day 8 of therapy, on day 1 of each cycle of therapy, and, if available, at the time of progression. Eight milliliters of blood was collected in purple top (plasma EDTA) vacutainers and shipped on wet ice to a Clinical Laboratory Improvement Amendments-certified core in the Steele Laboratories (Massachusetts General Hospital), where whole blood was separated by centrifugation into cellular fraction and plasma. The fraction of stem/progenitor cell, lymphocyte, and myeloid populations of total circulating mononuclear cells were counted by flow cytometry using a LSR-II cytometer and FACSDiva software in fresh blood samples using the following markers: CD3, CD4, CD8, CD14, CD25, CD34, CD45, CD56, CD127, and CD133 (Becton Dickinson, Franklin Lakes, NJ, www.bd.com). Plasma was prepared in the standard fashion and stored at −78° C. until collection and analysis of all samples. The biomarkers measured included VEGF, placental growth factor (PlGF), VEGF-C, VEGF-D, soluble VEGFR1 (sVEGFR1), basic fibroblast growth factor (bFGF), and sTie-2 (using a 7-plex Growth Factor array) and granulocyte-macrophage colony stimulating factor (GM-CSF), interferon gamma (IFN-g), tumor necrosis factor alpha (TNF-a), and interleukin-1beta (IL-1b), IL-2, IL-6, IL-8, IL-10, and IL-12 heterodimer p70 (using a 9-plex Inflammatory Factor array; both Meso Scale Discovery, Gaithersburg, MD, www.mesoscale.com); and HGF, sMET, carbonic anhydrase IX (CAIX), stromal cell-derived factor 1 a (SDF1a), and sVEGFR2 by single analyte enzyme-linked immunosorbent assay (R&D Systems, Minneapolis, MN, www.rndsystems.com).
Descriptive statistics were used to summarize biomarker values at protocol-specific time points. […] The Wilcoxon signed rank test assessed biomarker change from day 1 to 8. Mixed effects linear models assessed the change in biomarker values at days 1, 8, 22, 43, and 64; values beyond day 64 were not analyzed because of the small number of patients still on protocol. […]

[3] = after cabozantinib, baseline to day 64

## COc1cc2nccc(Oc3ccc(NC(=O)C4(C(=O)Nc5ccc(F)cc5)CC4)cc3)c2cc1OC [cabozantinib]
[1]; of 21 patients with pain at entry who completed a survey
  patients reporting a decrease in pain since baseline: 52%
[1]; of the eleven with decreased pain
  patients with decreased pain who discontinued pain medications: 10 patients
[2]; Day 1 (baseline)
  CD3+ (lymphocytes), Median: 34.73 % of WBC
  CD3 + CD8 − CD4 + CD25+, Median: 0.66 % of WBC
  CD3 + CD8 − CD4 + CD25−, Median: 11.41 % of WBC
  CD3 + CD8 − CD4+, Median: 0.15 % of WBC
  CD3 + CD56+ (NKT cells), Median: 0.77 % of WBC
  CD3 − CD56+ (NK cells), Median: 5.84 % of WBC
  CD14+ (monocytes), Median: 42.20 % of WBC
  CD34 + CD133+ cells, Median: 0.17 % of WBC
[2]; Day 8
  CD3+ (lymphocytes), Median: 24.06 % of WBC
  CD3 + CD8 − CD4 + CD25+, Median: 0.79 % of WBC
  CD3 + CD8 − CD4 + CD25−, Median: 14.18 % of WBC
  CD3 + CD8 − CD4+, Median: 0.17 % of WBC
  CD3 + CD56+ (NKT cells), Median: 0.85 % of WBC
  CD3 − CD56+ (NK cells), Median: 7.27 % of WBC
  CD14+ (monocytes), Median: 31.44 % of WBC
  CD34 + CD133+ cells, Median: 0.11 % of WBC
[2]; Day 22
  CD3+ (lymphocytes), Median: 33.56 % of WBC
  CD3 + CD8 − CD4 + CD25+, Median: 0.59 % of WBC
  CD3 + CD8 − CD4 + CD25−, Median: 16.41 % of WBC
  CD3 + CD8 − CD4+, Median: 0.18 % of WBC
  CD3 + CD56+ (NKT cells), Median: 0.54 % of WBC
  CD3 − CD56+ (NK cells), Median: 8.51 % of WBC
  CD14+ (monocytes), Median: 19.03 % of WBC
  CD34 + CD133+ cells, Median: 0.12 % of WBC
[2]; Day 43
  CD3+ (lymphocytes), Median: 32.79 % of WBC
  CD3 + CD8 − CD4 + CD25+, Median: 0.73 % of WBC
  CD3 + CD8 − CD4 + CD25−, Median: 17.71 % of WBC
  CD3 + CD8 − CD4+, Median: 0.19 % of WBC
  CD3 + CD56+ (NKT cells), Median: 1.02 % of WBC
  CD3 − CD56+ (NK cells), Median: 6.50 % of WBC
  CD14+ (monocytes), Median: 24.79 % of WBC
  CD34 + CD133+ cells, Median: 0.18 % of WBC
[2]; Day 64
  CD3+ (lymphocytes), Median: 30.99 % of WBC
  CD3 + CD8 − CD4 + CD25+, Median: 0.61 % of WBC
  CD3 + CD8 − CD4 + CD25−, Median: 15.29 % of WBC
  CD3 + CD8 − CD4+, Median: 0.19 % of WBC
  CD3 + CD56+ (NKT cells), Median: 0.98 % of WBC
  CD3 − CD56+ (NK cells), Median: 8.13 % of WBC
  CD14+ (monocytes), Median: 23.48 % of WBC
  CD34 + CD133+ cells, Median: 0.11 % of WBC
[2]; [3]
  change in CD4+ cells (CD3+CD4+CD8− T): trend for increase; also recorded: nonsignificant trend toward increase
  change in CD14+ monocytes: persistent decrease
  change in CD56+ NK cells (CD3−CD56+ NK lymphocytes): trend for increase; also recorded: nonsignificant trend toward increase
  change in circulating CD3+ cells: significant increase; also recorded: persistent increase
  change in circulating CD8+ T cells (CD3+CD4−CD8+ T lymphocytes): significant increase
[2]; baseline to day 64
  change in fraction of CD3+CD56+ NKT cells: no significant changes
  change in fraction of CD4+CD25+ Tregs: no significant changes
  change in fraction of CD4+CD127+ memory T cells: no significant changes
  change in fraction of CD133+ progenitor/stem cells: no significant changes
[2]; metastatic TNBC patients
  effect on circulating cell biomarkers (summary): systemic changes consistent with activation of the immune system
